Where no end group is shown, it is not given here.
Key:
[1] = tested on: polyclonal mouse anti-FMDV peptide serum; type: binding
mAb 21×27 = type: binding, mice
BALB/c mice = conditions: mouse, in vivo; cited from earlier work

Substance | recognition by polyclonal antibodies (ELISA, FIG. 5A) [1] | recognition by monoclonal antibodies (ELISA, FIG. 5B) (mAb 21×27) | immunogenicity when injected alone with an adjuvant (BALB/c mice)
Ac-CGSGVRGDFGSLAPRVARQL [free FMDV peptide] | recognized equally well | recognized equally well | –
Ac-GSGVRGDFGSLAPRVARQL [FMDV 141-159 peptide] | – | – | not immunogenic

From US20060199770A1, “Functionalized carbon nanotubes, a process for preparing the same and their use in medicinal chemistry” (priority 2003, published 2006)
